The text below walks through data of US20220054520A1, “OPHTHALMIC COMPOSITION CONTAINING DIQUAFOSOL OR SALT THEREOF, VINYL-BASED POLYMER AND CELLULOSE-BASED POLYMER” (SANTEN PHARMACEUTICAL CO., LTD., priority 2019, published 2022).

The data set deals with rat dorsal root ganglion neurons. Nature of the data set: Stimulativeness of diquafosol sodium to peripheral nerves, intracellular calcium fluorescence (FLIPR Calcium 6). The format is cell-based. The protocol:
The stimulativeness of diquafosol sodium to peripheral nerves in the coexistence of PVP was examined.
Cultured peripheral nerve cells (rat dorsal root ganglion neurons, purchased from Lonza Japan Ltd.) were incubated in a buffer solution (FLIPR Calcium 6 Assay Kit, Molecular Devices, LLC.) including intracellular fluorescent calcium indicator dyes. 40% of the total buffer solution was replaced with each of the aforementioned formulation solutions. The non-stimulation group and the stimulated control group were treated with the buffer solutions instead of the formulation solutions in the same manner. After allowing to stand at room temperature, the fluorescence measurement of the calcium indicator dyes with an elapse of time was started by using a fluorescent plate reader. Diquafosol sodium (final concentration: 0.3%) was added after 60 seconds from the start, and the measurement of fluorescence intensity was continued.
The maximum fluorescence intensity (RFUmax) after addition of diquafosol sodium was calculated relative to the fluorescence intensity (RFU) immediately before the addition as 100%.

As for `O=c1ccn([C@@H]2O[C@H](COP(=O)([O-])OP(=O)([O-])OP(=O)([O-])OP(=O)([O-])OC[C@H]3O[C@@H](n4ccc(=O)[nH]c4=O)[C@H](O)[C@@H]3O)[C@@H](O)[C@H]2O)c(=O)[nH]1.[Na+].[Na+].[Na+].[Na+]` [diquafosol sodium, diquafosol tetrasodium salt], the “fluorescence intensity / signal of intracellular calcium ions after addition of diquafosol sodium (in words)” value (peripheral nerve cells exposed to diquafosol sodium 0.3%, with or without formulation solution) is reported as “rapidly increased”. The “maximum fluorescence intensity (RFUmax) after addition of diquafosol sodium” value (stimulated control group: buffer solution instead of formulation solution, diquafosol sodium final concentration 0.3%, RFU before addition as 100%) was at least 103.5%.
